pIC50: −log10 of the molar value.
How the values were obtained:
[1] = test system: A2780; test: Cell-based proliferation assay for GI50 (CyQUANT), A2780; details: Homo sapiens; A2780, 96 h treatment; read-out: Cellular or Growth Inhibition Activity, GI50, A2780
Experimental: (§1) Human colon cancer cell lines (Colo205, HCT116), Ovarian cancer cell line (A2780), Hepatoma cell line (HEP3B), Prostate cancer cell line (PC3) were obtained from ATCC or ECACC. Colo205 cells were cultivated in RPMI 1640 containing 2 mM L-Glutamine, 5% FBS, 1.0 mM Na Pyruvate, 1 U/ml of penicillin and 1 μg of streptomycin. HCT116 cells were cultivated in McCoy's containing RPMI 1640 containing 2 mM L-Glutamine, 5% FBS, 1 U/ml of penicillin and 1 μg of streptomycin. A2780 cells were cultivated in RPMI 1640 containing 2 mM L-Glutamine, 5% FBS, 1 U/ml of penicillin and 1 μg of streptomycin. HEP3B cells were cultivated in EMEM containing 2 mM L-glutamine, 5% FBS, 1% non essential amino acid, 1 mM Na Pyruvate, 1 U/ml of penicillin and 1 μg of streptomycin. PC3 cells were cultivated in F12K, 2 mM L-glutamine, 5% FBS, 1 U/ml of penicillin and 1 μg of streptomycin. PC3, Colo205, and HCT116 cells were seeded in 96-wells plate at 1000, 5000 and 6000 cells per well respectively. A2780 and HEP3B cells were seeded in 96-wells plate at 4000 cells per well respectively. The plates were incubated at 37° C., 5% CO2, for 24 h. Cells were treated with compounds at various concentrations for 96 h. Cell growth was then monitored using CyQUANT® cell proliferation assay (Invitrogen Pte Ltd). Dose response curves were plotted to determine GI50 values for the compounds using XL-fit (ID Business Solution, Emeryville, Calif.). GI50 is defined as the concentration of compound required for 50% inhibition of cell growth.

[2] = test system: PC3; test: Cell-based proliferation assay for GI50 (CyQUANT), PC3; details: Homo sapiens, PC-3; PC3, 96 h treatment; read-out: Cellular or Growth Inhibition Activity, GI50, PC3
Experimental: as §1

[3] = test system: HCT116; test: Cell-based proliferation assay for GI50 (CyQUANT), HCT116; details: Homo sapiens, HCT-116; HCT116, 96 h treatment; read-out: Cellular or Growth Inhibition Activity, GI50, HCT116
Experimental: as §1

[4] = Measurement of microsomal stability; assay type: in vitro ADME; details: pooled human liver microsomes, pH 7.4; human liver microsome, 5 μM test compound, 1.0 mg/ml microsomal protein
[5] = molecular target: T1, HDAC1 enzyme (Homo sapiens, UniProt Q13547); test: In vitro HDAC assay for determination of IC50 values (BIOMOL fluorescent-based HDAC activity assay); assay type: biochemical
T1 construct: Amplification of human HDAC1 coding region from this cDNA library was cloned separately into the baculovirus expression pDEST20 vector; made in house; host or cells: SF9 insect cells, pDEST20-HDAC1 baculovirus
In short: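 Recombinant GST-HDAC1, cloned from SW620 cDNA and expressed in Sf9 cells, tested in a fluorogenic Fluor de Lys deacetylase assay. Developer was added for 10 min and fluorescence read at 360/460 nm. IC50 came from concentration series.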

T1 sequence (Q13547 whole entry): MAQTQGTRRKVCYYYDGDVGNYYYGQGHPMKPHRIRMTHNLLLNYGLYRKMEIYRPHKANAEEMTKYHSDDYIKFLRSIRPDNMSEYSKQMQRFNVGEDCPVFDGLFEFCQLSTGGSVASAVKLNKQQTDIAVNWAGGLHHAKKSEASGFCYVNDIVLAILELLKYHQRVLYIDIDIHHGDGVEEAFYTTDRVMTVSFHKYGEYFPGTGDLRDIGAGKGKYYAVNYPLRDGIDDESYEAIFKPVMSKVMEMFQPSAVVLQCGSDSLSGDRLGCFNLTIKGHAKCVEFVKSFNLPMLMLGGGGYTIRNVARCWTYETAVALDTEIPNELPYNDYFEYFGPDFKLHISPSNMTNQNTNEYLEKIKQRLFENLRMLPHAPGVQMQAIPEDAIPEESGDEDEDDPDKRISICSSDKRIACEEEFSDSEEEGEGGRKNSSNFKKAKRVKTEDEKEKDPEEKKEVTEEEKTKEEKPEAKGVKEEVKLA

GI50 [1]: < 500 nM
GI50 [2]: < 500 nM
GI50 [3]: < 500 nM
half-life at 5 μM [4]: > 30 min
pIC50 [5]: 7.44
Structure (SMILES): CCCc1nc2cc(/C=C/C(=O)NO)ccc2n1CCNCCC(C)(C)C [Compound 130, 3-{1-[2-(3,3-Dimethyl-butylamino)-ethyl]-2-propyl-1H-benzoimidazol-5-yl}-N-hydroxy-acrylamide]
